Experimental data from paper PMC10233829 (ACS Omega, 2023).
Values after ≈ are worked out from the molar mass of the structure shown. Where two headings read alike, the source gives them in different places.

Tests used:
[1] = MTT assay, cytotoxic activity; format: cell-based; settings: human
Experimental: (§1) Cells were seeded in 6 mL medium in a tissue culture flask (50 mL) in a 37 °C/5% CO2 humidified incubator. […] MTT analysis was performed according to a previous study.[59] Untreated cells were used as controls. Cell absorbance results were inserted into the formula for the relative MTT level (%). It allows to calculate the viability of cells under the influence of the tested compounds. Cell viability was expressed as the percentage of MTT reduction in cells treated with tested compounds compared to the control sample. The relative MTT level was calculated using the formula [100%] = A/B × 100% where A—the test sample absorbance and B—the control sample absorbance.

PC3 cells = test: MTT assay, cytotoxic activity; format: cell-based, human; settings: Homo sapiens, PC-3, 72 h, MTT, 72 h
Experimental: as §1, with “Metastatic prostate cancer (PC3) and human immortal keratinocyte (HaCaT) cell lines were purchased from the American Type Culture Collection (ATCC, Rockville, MD, USA) and cultured in MEM (minimal essential medium, Thermo Sci, USA), RPMI 1640 (Roswell Park Memorial Institute, Biowest SAS, France), and DMEM (Dulbecco’s Modified Eagle’s Medium, Biowest SAS, France). Cells” for “Cells”

[2] = tested on: M. tuberculosis Spec. 192; test: Tuberculostatic activity, Microplate Alamar Blue Assay (MIC); format: cell-based; settings: Mycobacterium tuberculosis, MABA, read-out: MIC M. tuberculosis Spec. 192 (sensitive to tuberculostatics)
P. aeruginosa 659 = test: MIC, twofold microdilution, clinical strain; format: cell-based; settings: Pseudomonas aeruginosa, 18 h
[3] = tested on: S. epidermidis ATCC 35984; test: MIC, twofold microdilution, standard strain; format: cell-based; settings: Staphylococcus epidermidis, ATCC35984, 18 h
E. coli ATCC 25922 = test: MIC, twofold microdilution, standard strain; format: cell-based, Escherichia coli; settings: Escherichia coli, ATCC25922; standard strain, 18 h
P. aeruginosa ATCC 15442 = test: MIC, twofold microdilution, standard strain; format: cell-based, Pseudomonas aeruginosa; settings: Pseudomonas aeruginosa, ATCC15442; standard strain, 18 h
K. pneumoniae 510 = test: MIC, twofold microdilution, clinical strain; format: cell-based, Klebsiella pneumoniae; settings: Klebsiella pneumoniae, 510; clinical strain, 18 h
S. aureus 5595 = test: MIC, twofold microdilution, clinical strain; format: cell-based; settings: Staphylococcus aureus, 18 h
S. epidermidis 4341 = test: MIC, twofold microdilution, clinical strain; format: cell-based; settings: Staphylococcus epidermidis, 18 h
[4] = tested on: clinical bacterial strains; test: MIC, clinical isolates as groups of strains; format: cell-based; settings: for MIC: clinical strains, read-out: MIC against selected E. coli and E. cloacae strains
E. coli 600 = test: MIC, twofold microdilution, clinical strain; format: cell-based, Escherichia coli; settings: Escherichia coli, 600, 18 h
S. epidermidis 5253 = test: MIC, twofold microdilution, clinical strain; format: cell-based, Staphylococcus epidermidis; settings: Staphylococcus epidermidis, 5253, 18 h
S. aureus T5591 = test: MIC, twofold microdilution, clinical strain; format: cell-based, Staphylococcus aureus; settings: for MIC: Staphylococcus aureus, T5591, 18 h
S. pasteuri KR 4358 = test: MIC, twofold microdilution, clinical strain; format: cell-based; settings: Staphylococcus pasteuri, KR4358, 18 h
S. aureus ATCC 25923 = test: MIC, twofold microdilution, standard strain; format: cell-based; settings: Staphylococcus aureus, ATCC25923, 18 h
K. pneumoniae 28 = test: MIC, twofold microdilution, clinical strain; format: cell-based; settings: Klebsiella pneumoniae, 18 h
[5] = tested on: S. epidermidis ATCC 12228; test: MIC, twofold microdilution, standard strain; format: cell-based; settings: Staphylococcus epidermidis, ATCC12228, 18 h
S. aureus ATCC 29213 = test: MIC, twofold microdilution, standard strain; format: cell-based; settings: Staphylococcus aureus, ATCC29213, 18 h
S. aureus T5595 = test: MIC, twofold microdilution, clinical strain; format: cell-based, Staphylococcus aureus; settings: for MIC: Staphylococcus aureus, T5595, 18 h
M. tuberculosis H37Rv = test: Tuberculostatic activity, Microplate Alamar Blue Assay (MIC); format: cell-based, Mycobacterium tuberculosis; settings: Mycobacterium tuberculosis, H37RV, read-out: MIC M. tuberculosis H37Rv
S. epidermidis KR4243/1 = test: MIC, twofold microdilution, clinical strain; format: cell-based; settings: Staphylococcus epidermidis, 18 h
E. coli 520 = test: MIC, twofold microdilution, clinical strain; format: cell-based; settings: Escherichia coli, 18 h
S. aureus 180 = test: MIC, twofold microdilution, clinical strain; format: cell-based; settings: Staphylococcus aureus, 18 h
E. cloacae 8 = test: MIC, twofold microdilution, clinical strain; format: cell-based, Escherichia cloacae; settings: Enterobacter cloacae, 8; clinical strain, 18 h
S. aureus NCTC 4163 = test: MIC, twofold microdilution, standard strain; format: cell-based; settings: Staphylococcus aureus, NCTC4163, 18 h
S. aureus ATCC 6538 = test: MIC, twofold microdilution, standard strain; format: cell-based, Staphylococcus aureus; settings: Staphylococcus aureus, ATCC6538; standard strain, 18 h
P. aeruginosa 37 = test: MIC, twofold microdilution, clinical strain; format: cell-based; settings: Pseudomonas aeruginosa, 18 h
E. coli 951 = test: MIC, twofold microdilution, clinical strain; format: cell-based; settings: Escherichia coli, 18 h
[6] = tested on: Staphylococci (standard strains); test: MIC, standard Gram-positive strains as a panel; format: cell-based, S. aureus, S. epidermidis; settings: standard Gram-positive strains of Table 1; read-out: MIC toward standard Staphylococci (range over strains)
[7] = HaCaT cells (immortal keratinocytes), MTT, 72 h, normal cell line, read-out: IC50 HaCaT

Structure (SMILES)	IC50 (PC3 cells) [µM]	IC50 at 72 h [1, 7] [µM]	MIC [2] [mg/L]	MIC (P. aeruginosa 659) [mg/L]	MIC [3] [mg/L]	MIC (E. coli ATCC 25922) [mg/L]	MIC (P. aeruginosa ATCC 15442) [mg/L]	MIC (K. pneumoniae 510) [mg/L]	MIC (S. aureus 5595) [mg/L]	MIC (S. epidermidis 4341) [mg/L]	MIC [4] [mg/L]	MIC (E. coli 600) [mg/L]	MIC (S. epidermidis 5253) [mg/L]	MIC (S. aureus T5591) [mg/L]	MIC (S. pasteuri KR 4358) [mg/L]	MIC (S. aureus ATCC 25923) [mg/L]	MIC (K. pneumoniae 28) [mg/L]	MIC [5] [mg/L]	MIC (S. aureus ATCC 29213) [mg/L]	MIC (S. aureus T5595) [mg/L]	also measured
COc1cccc2c1C(=O)c1c(O)c3c(c(O)c1C2=O)C[C@@](O)(C(=O)CO)C[C@@H]3O[C@H]1C[C@H](N)[C@H](O)[C@H](C)O1 [doxorubicin, reference compound]	0.3 ± 0.12																				IC50 at 72 h [1]: 0.3 ± 0.11 µM
O=C(O)c1cn(C2CC2)c2cc(N3CCN(C(=O)CC(F)(F)F)CC3)c(F)cc2c1=O [Compound 14, 7-[4-(3,3,3-Trifluoropropionyl)-piperazin-1-yl]-1-cyclopropyl-6-fluoro-4-oxo-1,4-dihydro-quinoline-3-carboxylic Acid]	63.4 ± 5.3	> 100	64 (≈ 145 µM)	> 25.6	0.4 (≈ 0.906 µM)	0.8 (≈ 1.81 µM)	> 25.6	> 25.6	0.5 (≈ 1.13 µM)	> 25.6	0.1 to 0.8 (≈ 0.227 to 1.81 µM)	0.8 (≈ 1.81 µM)	> 25.6	0.1 to 0.2 (≈ 0.227 to 0.453 µM)	0.2 (≈ 0.453 µM)	0.4 (≈ 0.906 µM)	> 25.6	0.4 (≈ 0.906 µM)	0.4 (≈ 0.906 µM)	0.1 to 0.2 (≈ 0.227 to 0.453 µM)	times more powerful than CP ([4]; S. aureus T5595 and T5591): 1.25–2.5 times; MIC S. aureus T5591 (S. aureus T5591; 18 h): 0.2 mg/L (≈ 0.453 µM); MIC S. aureus T5595 (S. aureus T5595; 18 h): 0.2 mg/L (≈ 0.453 µM); MIC (M. tuberculosis H37Rv; MABA): 64 mg/L (≈ 145 µM); MIC (S. epidermidis KR4243/1): 0.1 mg/L (≈ 0.227 µM); MIC (E. coli 520): 0.4 mg/L (≈ 0.906 µM); MIC (S. aureus 180): 0.5 mg/L (≈ 1.13 µM); MIC (E. cloacae 8): 2 mg/L (≈ 4.53 µM); MIC (S. aureus NCTC 4163): 0.4 mg/L (≈ 0.906 µM); MIC (S. aureus ATCC 6538): 0.4 mg/L (≈ 0.906 µM); MIC (P. aeruginosa 37): > 25.6 mg/L; MIC (E. coli 951): > 25.6 mg/L
NNC(=O)c1ccncc1 [isoniazid (INH), isoniazid, reference compound]			0.125 (≈ 0.911 µM)																		MIC (M. tuberculosis H37Rv): 0.125 mg/L (≈ 0.911 µM)
O=C(O)c1cn(C2CC2)c2cc(N3CCN(C(=O)CCCCCBr)CC3)c(F)cc2c1=O [Compound 12, 7-[4-(6-Bromohexanoyl)-piperazin-1-yl]-1-cyclopropyl-6-fluoro-4-oxo-1,4-dihydro-quinoline-3-carboxylic Acid]	29.7 ± 5	> 100	1 (≈ 1.97 µM)	> 25.6	0.8 (≈ 1.57 µM)	1.6 (≈ 3.15 µM)	25.6 (≈ 50.4 µM)	> 25.6	0.5 (≈ 0.984 µM)	64 (≈ 126 µM)	0.1 to 0.8 (≈ 0.197 to 1.57 µM)	0.4 (≈ 0.787 µM)	> 25.6	0.8 (≈ 1.57 µM)	0.8 (≈ 1.57 µM)	1.6 (≈ 3.15 µM)	> 25.6	1.6 (≈ 3.15 µM)	1.6 (≈ 3.15 µM)	0.8 (≈ 1.57 µM)	MIC [6]: 0.8 to 1.6 mg/L (≈ 1.57 to 3.15 µM); MIC (M. tuberculosis H37Rv; MABA): 1 mg/L (≈ 1.97 µM); MIC (S. epidermidis KR4243/1): 0.8 mg/L (≈ 1.57 µM); MIC (E. coli 520): 0.8 mg/L (≈ 1.57 µM); MIC (S. aureus 180): 0.5 mg/L (≈ 0.984 µM); MIC (E. cloacae 8): > 25.6 mg/L; MIC (S. aureus NCTC 4163): 0.8 mg/L (≈ 1.57 µM); MIC (S. aureus ATCC 6538): 1.6 mg/L (≈ 3.15 µM); MIC (P. aeruginosa 37): > 25.6 mg/L; MIC (E. coli 951): > 25.6 mg/L
